Values quoted from earlier work in US20030158158A1, “Oct preparations” (priority 2000, published 2003).

Assays:
[1] = not given; remark: listed apart in the source
[2] = not given; remark: listed apart in the source

C=C1/C(=C\C=C2/CCC[C@]3(C)[C@@H]([C@H](C)OCCC(C)(C)O)CC[C@@H]23)C[C@@H](O)C[C@@H]1O [OCT, 1α,25-dihydroxy-22-oxavitamin D3]
in vitro differentiation-inducing activity: strong
decomposition in aqueous solutions [1]: rapidly decompose
in vivo calcium elevating effect [2]: low
